Experimental data taken from patent US6117975A, “Melanocortin receptor polypeptides MC-3, MC-4, and MC-5” (The Regents of the University of Michigan, priority 1996, dated 2000).
No end group written: not given here.

Assays:
MC4 receptor [1] = target: T1, MC4 receptor (Homo sapiens, UniProt P32245); assay: intracellular cAMP content in Hepa cells transfected with the MC4 receptor; assay type: cell-based
T1 construct: expressed in transfected cells; host or cells: COS-1 (transient, lipofection); Hepa rat hepatoma; CMVneo vector

MC3 receptor [2] = target: T2, MC3 receptor (Homo sapiens, UniProt P41968); assay: [3H] inositol phosphate (IP) production in Hepa cells transfected with the MC3 receptor
Excerpt: Receptor Gene Expression. The coding region of the MC3 receptor gene was subcloned into the eukaryotic expression vector CMVneo using a polymerase chain reaction (PCR) strategy as previously described. […] The insert was subsequently checked by dideoxynucleotide sequencing to insure that no errors were induced by the PCR. A rat hepatoma cell line (Hepa) which lacks endogenous melanocortin receptors was transfected with the CMVneo/MC3 receptor construct using the calcium phosphate co-precipitation method. […] Cells were selected for resistance to the neomycin analogue Geneticin (Life Sciences) and clones were subsequently chosen for high levels of receptor mRNA expression by Northern blot analysis.
Inositol Phosphate (IP) Assays. Measurement of inositol phospholipid turnover in Hepa cells was performed according to a modification of previously published methods as follows. […] Cells grown to semi-confluence in multiwell plates were prelabeled with [2-^3 H] myo-inositol in DMEM for 24 hr, incubated in EBSS for 30 min, then incubated for another 15 min in EBSS with 10 mM LiCl. The final incubation was in media with experimental ligand added for up to three min after which ice cold 100% methanol was added and the cells were scraped and extracted with 2 ml chloroform, 10 μl HCl (13 N), and 200 μl of 100 mM EDTA in a 50 ml polypropylene tube. The mixture was then vortexed and centrifuged at 1,900 X g. The supernatant was removed and its pH was adjusted to 7.0 by adding 1 N NaOH. Waters Accel plus QMA SEP-PAK anion exchange cartridges (Waters Chromatography, Millipore Corporation, Milford, Mass.) were used to separate inositol phosphates under differing concentrations of formatelformic acid. The cartridges were pretreated by washing with 10 ml of a solution of 1 M ammonium formate in 0.1 M formic acid followed by 20 ml of distilled water. The samples were applied with a flow rate of approximately 10 ml/min using a 10 ml syringe. IPs were then eluted using 10 mM increments of ammonium formate in a stepwise fashion. Inositol monophosphate was eluted with 10 mM formic acid/100 mM ammonium formate/5 mM disodium tetraborate, inositol bisphosphate was eluted with 20 mM formic acid/200 mM ammonium formate/5 mM disodium tetraborate, and IP3 was eluted with 30 mM formic acid/300 mM ammonium formate/5 mM disodium tetraborate. […] Eluted radioactivity from the pooled fractions (total inositol phosphates) were measured by liquid-scintillation spectrometry (Beckman model LS7800 instrument).

MC1 receptor = target: T3, MC1 receptor (Homo sapiens, UniProt Q01726, R163Q/S90T); assay: cAMP generation in L-cells transfected with the MC1 receptor; assay type: cell-based
T3 construct: expressed in transfected cells
T3 sequence (Q01726 1-317 S90T/R163Q): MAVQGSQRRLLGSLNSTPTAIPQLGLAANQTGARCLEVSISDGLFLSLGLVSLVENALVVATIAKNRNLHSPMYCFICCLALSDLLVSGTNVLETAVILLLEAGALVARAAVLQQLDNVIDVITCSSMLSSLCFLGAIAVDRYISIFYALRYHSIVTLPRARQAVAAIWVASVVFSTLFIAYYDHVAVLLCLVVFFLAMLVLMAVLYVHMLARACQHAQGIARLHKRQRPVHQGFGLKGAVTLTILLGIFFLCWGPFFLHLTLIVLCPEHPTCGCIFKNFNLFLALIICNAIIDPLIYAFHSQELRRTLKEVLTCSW
Excerpt: (§1) Receptor Expression. […] The sequences were subsequently checked by nucleotide sequencing to insure that no sequence errors were induced by PCR. L-cells (a mouse fibroblast-like cell line) were transfected using a calcium phosphate co-precipitation method as described in Chen, C. A. et al. Bio/Techniques 6:632-638 (1988). Permanently transfected L-cells were selected by resistance to the neomysin analogue G418, and receptor mRNA expression was checked by Northern blot analysis. […] COS-1 cells which were transiently transfected with the CMVneo/MC4R gene construct by lipofection as described in Feigner, P. L. et al., PNAS (USA) 84:7413-7417 using the Lipofectin Reagent (Life Technologies Inc.) were split into 12-well plates after 24 hr and assayed 36 hr post-transfection.
(§2) cAMP Assays. For these assays a cAMP assay kit (TRK 432, Amersham Corp.) was employed. […] The cells were maintained in Dulbecco's modified Eagle's medium (GIBCO) containing 4.5 g/100 ml glucose, 10% fetal calf serum, 100 units/ml penicillin and streptomycin, 1 mM sodium pyruvate, and 1 mg/ml Geneticin. […] An aliquot (0.5 ml) of Earle's balanced salt solution was placed into each well along with 5 μl of 2×10^-2 M isobutylmethylxanthine. Varying concentrations of agonist were added, and the cells were incubated to 30 min at 37° C. Ice-cold 30% trichloracetic acid (500 μl/well) was added to stop the reaction and precipitate cellular protein. The cells were scraped and transferred to 16×150-mm glass tubes, then placed on ice for 30 min. The precipitate was then centrifuged for 10 min at 1,900×g, and the supernatant was ether extracted, lyophilized, and resuspended in 50 mM Tris, 2 mM EDTA (pH 7.5). cAMP content was then measured by a competitive binding assay according to the assay instructions.

MC4 receptor [3] = target: T1, MC4 receptor; assay: cAMP generation in L-cells transfected with the MC4 receptor gene; assay type: cell-based
Excerpt: as §1, §2

mMC5 receptor = target: T4, mMC5 receptor (Mus musculus, UniProt P41149); assay: cAMP generation in L-cells transfected with the mMC5 receptor; assay type: cell-based
T4 construct: expressed in transfected cells
Excerpt: as §1, §2

MC3 receptor [4] = target: T2, MC3 receptor; assay: cAMP generation in L-cells transfected with the MC3 receptor; assay type: cell-based; parameters: these were utilized to obtain full-length genomic clones by screening a genomic library; expressed in transfected cells; CMVneo vector
Excerpt: as §1, §2

MC3 receptor [5] = target: T2, MC3 receptor; assay: intracellular cAMP content in Hepa cells transfected with the MC3 receptor; assay type: cell-based; parameters: these were utilized to obtain full-length genomic clones by screening a genomic library; expressed in transfected cells; CMVneo vector
Procedure: Receptor Expression. […] The sequences were subsequently checked by nucleotide sequencing to insure that no sequence errors were induced by PCR. […] A rat hepatoma cell line (Hepa) which lacks endogenous melanocortin receptors was also transfected with the CMVneo/MC3R and CMVneo/MC4R constructs.
cAMP Assays. For these assays a cAMP assay kit (TRK 432, Amersham Corp.) was employed. Cells transfected with the receptors were grown to confluence in 12-well (2.4×1.7 cm) tissue culture plates. The cells were maintained in Dulbecco's modified Eagle's medium (GIBCO) containing 4.5 g/100 ml glucose, 10% fetal calf serum, 100 units/ml penicillin and streptomycin, 1 mM sodium pyruvate, and 1 mg/ml Geneticin. For assays, this medium was removed and cells were washed twice with Earle's balanced salt solution containing 10 mM Hepes (pH 7.4), 1 mM glutamine, 26.5 mM sodium bicarbonate, and 100 mg/ml bovine serum albumin. An aliquot (0.5 ml) of Earle's balanced salt solution was placed into each well along with 5 μl of 2×10^-2 M isobutylmethylxanthine. Varying concentrations of agonist were added, and the cells were incubated to 30 min at 37° C. Ice-cold 30% trichloracetic acid (500 μl/well) was added to stop the reaction and precipitate cellular protein. The cells were scraped and transferred to 16×150-mm glass tubes, then placed on ice for 30 min. The precipitate was then centrifuged for 10 min at 1,900×g, and the supernatant was ether extracted, lyophilized, and resuspended in 50 mM Tris, 2 mM EDTA (pH 7.5). cAMP content was then measured by a competitive binding assay according to the assay instructions.
Receptor Gene Expression. The coding region of the MC3 receptor gene was subcloned into the eukaryotic expression vector CMVneo using a polymerase chain reaction (PCR) strategy as previously described. […] The insert was subsequently checked by dideoxynucleotide sequencing to insure that no errors were induced by the PCR. […]

[6] = read-out: ED50, cAMP generation

T1 sequence (P32245 whole entry): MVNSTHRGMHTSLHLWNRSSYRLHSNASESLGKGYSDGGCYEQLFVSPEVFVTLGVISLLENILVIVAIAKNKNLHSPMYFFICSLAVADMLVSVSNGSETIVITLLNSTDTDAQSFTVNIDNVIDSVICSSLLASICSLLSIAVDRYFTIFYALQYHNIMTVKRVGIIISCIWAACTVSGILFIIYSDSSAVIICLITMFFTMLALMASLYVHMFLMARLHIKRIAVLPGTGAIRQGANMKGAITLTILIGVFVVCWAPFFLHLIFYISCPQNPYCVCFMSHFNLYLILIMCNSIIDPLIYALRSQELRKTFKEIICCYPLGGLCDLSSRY
T4 sequence (P41149 whole entry): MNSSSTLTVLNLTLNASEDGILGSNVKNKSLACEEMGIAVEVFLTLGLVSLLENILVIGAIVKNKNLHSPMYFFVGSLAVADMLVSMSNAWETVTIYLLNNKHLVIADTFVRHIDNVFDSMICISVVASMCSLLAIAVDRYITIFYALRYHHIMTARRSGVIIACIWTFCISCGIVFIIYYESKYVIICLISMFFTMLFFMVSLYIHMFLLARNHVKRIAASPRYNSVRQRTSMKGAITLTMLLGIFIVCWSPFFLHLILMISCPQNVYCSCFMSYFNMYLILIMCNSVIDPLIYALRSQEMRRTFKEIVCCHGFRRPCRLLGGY
T2 sequence (P41968 whole entry): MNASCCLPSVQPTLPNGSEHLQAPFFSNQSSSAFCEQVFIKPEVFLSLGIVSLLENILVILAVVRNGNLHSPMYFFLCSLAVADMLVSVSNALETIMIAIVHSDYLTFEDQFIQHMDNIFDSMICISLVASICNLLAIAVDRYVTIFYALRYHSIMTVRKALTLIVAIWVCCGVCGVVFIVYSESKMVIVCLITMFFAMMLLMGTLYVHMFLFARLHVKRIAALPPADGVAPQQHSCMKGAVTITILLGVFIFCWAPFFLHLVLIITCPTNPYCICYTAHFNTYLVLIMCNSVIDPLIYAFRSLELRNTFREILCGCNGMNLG

Molecule	cAMP response (in words) (MC1 receptor)	cAMP response (in words) (MC4 receptor [3])	cAMP response (in words) (mMC5 receptor)	cAMP response (in words) (MC3 receptor [4])	other results
CSCC[C@H](NC(=O)[C@@H](NC(=O)[C@@H](N)Cc1ccc(O)cc1)C(C)C)C(=O)NCC(=O)N[C@@H](Cc1c[nH]cn1)C(=O)N[C@@H](Cc1ccccc1)C(=O)N[C@@H](CCCNC(=N)N)C(=O)N[C@@H](Cc1c[nH]c2ccccc12)C(=O)N[C@@H](CC(=O)O)C(=O)N[C@@H](CCCNC(=N)N)C(=O)N1CCC[C@H]1C(=O)NCC(=O)O [Pro^11 y-MSH]					efficacy, intracellular cAMP (MC4 receptor [1]; α-MSH as reference for maximum response): 75%; EC50 (MC4 receptor [1]; α-MSH dose response curve as reference for maximum response): 100 nM
CCCC(=O)Nc1ncnc2c1ncn2[C@@H]1O[C@@H]2COP(=O)(O)O[C@H]2[C@H]1OC(=O)CCC [dbcAMP, dibutryl cAMP]					effect on α-MSH stimulated [3H]-IP production (in words) (MC3 receptor [2]): dose dependently inhibited the level of [^3 H]-IP turnover in response to α-MSH
CSCC[C@H](N)C(=O)N[C@@H](CCC(=O)O)C(=O)N[C@@H](Cc1c[nH]cn1)C(=O)N[C@@H](Cc1ccccc1)C(=O)N[C@@H](CCCNC(=N)N)C(=O)N[C@@H](Cc1c[nH]c2ccccc12)C(=O)NCC(=O)O [ACTH(4-10)]					Emax (MC4 receptor [1]; read-out: efficacy, % of the maximal response of ACTH (1-13)): 30%
β-endorphin	neither the MC1 receptor nor the MC3 receptor responded	did not respond	Neither were the other products of pro-opiomelanocortin processing, β-endorphin, met-enkephlin, or porcine β-lipotropin active	neither the MC1 receptor nor the MC3 receptor responded	
Rat ACTH: rat ACTH, which differs from human ACTH in two amino acids (SYSMEHFRWGKPVGKKRRPVKVYPNVAENESAEAFPLEF; Corticotropin; UniProt P01194 124-162, looked up)			produced the same results		
[Met]enkephalin	neither the MC1 receptor nor the MC3 receptor responded	did not respond	Neither were the other products of pro-opiomelanocortin processing, β-endorphin, met-enkephlin, or porcine β-lipotropin active	neither the MC1 receptor nor the MC3 receptor responded	
Thr^1, Pro^11 y-MSH					cAMP response (in words) (MC4 receptor [1]): diminished both the potency and efficacy
SYSMEHFRWGKPVGKKRRPVKVYPNGAEDESAEAFPLEF [ACTH, ACTH(1-39)]					EC50 (MC1 receptor; [6]): ~1 nM; EC50 (MC4 receptor [3]; read-out: half-maximal effect (EC50), intracellular cAMP): 1 nM; EC50 (MC3 receptor [4]; [6]): ~1 nM
[des-acetyl] α-MSH	identical to those observed for ACTH and α-MSH			identical to those observed for ACTH and α-MSH	cAMP response (in words) (MC4 receptor [1]): no difference was observed; cAMP response (in words) (MC3 receptor [5]): no difference was observed
β-lipotropin (peptide, UniProt P01192 177-267, looked up, listed as Lipotropin beta, product of pro-opiomelanocortin processing) Lipotropin beta: ELAGAPPEPARDPEAPAEGAAARAELEYGLVAEAEAAEKKDEGPYKMEHFRWGSPPKDKRYGGFMTSEKSQTPLVTLFKNAIVKNAHKKGQ		small increase in cAMP	Neither were the other products of pro-opiomelanocortin processing, β-endorphin, met-enkephlin, or porcine β-lipotropin active		
